From patent publication US11510876B2, “In vivo targeting of extracellular vesicles” (Mayo Foundation for Medical Education and Research, priority 2019, dated 2022)

How the values were obtained:
[1] = test system: ^89Zr labeled PC-3 derived exosomes; test: PET imaging of methylene blue mediated homing of intravenously injected 89Zr labeled exosomes to the injected hind paw (FIG. 11); type: in vivo, mouse; conditions: 1% methylene blue in Lactated Ringer's Solution injected in hind limb paw 1 h after i.v. exosomes; PET 1 h later; opposite paw (Ringer's only) showed no accumulation
Method: For PET image 456, the ^89Zr labeled PC-3 derived exosomes were intravenously injected (via tail vein). Then after one hour, 1% methylene blue (in Lactated Ringer's Solution) was injected in a hind limb paw. The opposite hind limb paw received a methylene blue-free and sterile Lactated Ringer's Solution. One hour after administering the methylene blue solution, the PET image 456 was taken. […] Thus, methylene blue homed the ^89Zr labeled PC-3 derived exosomes from circulation to the paw region, effectively showing that the ^89Zr labeled PC-3 derived exosomes targeted methylene blue.

[2] = test system: ^89Zr labeled stem cell derived exosomes; test: as above; type: in vivo, mouse; conditions: 1% methylene blue in Lactated Ringer's Solution injected in hind limb paw 1 h after i.v. exosomes; PET 1 h later; opposite paw (Ringer's only) showed no accumulation
Source text: FIG. 11 illustrates four PET images of injected ^89Zr labeled exosomes in mice. PET images 450, 452 utilized stem cell derived exosomes, whereas PET images 454, 456 illustrate prostate cancer (PC-3) derived exosomes. Both groups of exosomes were labeled with ^89Zr, a positron emitter, which allows the exosomes to be tracked within the mouse by PET imaging. As illustrated in some or all of the PET images 450, 452, 454, 456, the heart/lungs 460, the liver 462, the gut 464/468 and 466/470 show “hotspots” of the ^89Zr labeled exosomes (homing agent mediated accumulation zones of the ^89Zr labeled exosomes). […] For PET image 452, the ^89Zr labeled stem cell derived exosomes were intravenously injected (via tail vein). Then after one hour, 1% methylene blue (in Lactated Ringer's Solution) was injected in a hind limb paw. The opposite hind limb paw received a methylene blue-free and sterile Lactated Ringer's Solution. One hour after administering the methylene blue solution, the PET image 452 was taken. […] Thus, the methylene blue homed the ^89Zr linked stem cell derived exosomes from circulation, effectively showing that the ^89Zr labeled stem cell derived exosomes targeted methylene blue.

[3] = test system: ^89Zr labeled stem cell derived exosomes; test: Time-lapse PET imaging of the bio-distribution of 89Zr labeled exosomes after methylene blue paw injections (FIG. 12); type: in vivo, mouse
Method: FIG. 12 illustrates four time-lapse PET images showing the bio-distribution of injected ^89Zr labeled stem cell derived exosomes in a mouse. Similarly to the experiment illustrated in FIG. 11, stem cell derived exosomes were labeled with ^89Zr, a positron emitter, which allows the exosomes to be tracked within the mouse by PET imaging. Then, the ^89Zr labeled stem cell derived exosomes were injected intravenously into the mouse, and subsequently imaged thirty minutes after the injection, shown in PET image 500. Illustrated in PET image 500, and also the other PET images 502, 504, 506, are “hotspots” of the administered ^89Zr labeled stem cell derived exosomes (homing agent mediated accumulation zones of the ^89Zr labeled exosomes) at specific locations within the mouse (e.g., the heart 510, the liver 512, and the gut 514). […] Thus, the ^89Zr labeled stem cell derived exosomes were effectively homed to the tissue that contained methylene blue. After administering the methylene blue solution, 20 additional hours were lapsed before completing a second imaging of the mouse (at PET image 504). […] Then, immediately after acquiring PET image 504, the mouse was injected with the methylene blue solution at the hind paw (designated numeral 520), opposite the first hind paw injected with methylene blue (designated numeral 516). One hour after the second injection at the opposite hind paw at reference numeral 520, PET image 506 was acquired.

[4] = test system: ^89Zr labeled A549 lung cancer derived exosomes; test: PET imaging of methylene blue mediated homing of intravenously injected 89Zr labeled exosomes to the injected hind paw (FIG. 13); type: in vivo, mouse; conditions: 1% methylene blue in hind limb paw 1 h after i.v. exosomes; PET 1 h later; opposite paw (Ringer's only) showed no accumulation
Method: (§1) FIG. 13 illustrates methylene blue was able to home exosomes irrespective of their cellular origin. PET image 550 and 554 was taken one hour after the mouse was intravenously injected (via tail vein) with the ^89Zr labeled A549 lung cancer derived exosomes and SK-N-SH brain cancer (bone marrow metastasis) derived exosomes, respectively. […] Then after one hour, 1% methylene blue (in Lactated Ringer's Solution) was injected in a hind limb paw. The opposite hind limb paw received a methylene blue-free and sterile Lactated Ringer's Solution. One hour after administering the methylene blue solution, the PET image 552 and 556 was taken. […] Thus, the methylene blue homed the ^89Zr labeled A549 and SK-N-SH derived exosomes from circulation showing that it can home extracellular vesicles independent of their cellular origin.

[5] = test system: SK-N-SH brain cancer (bone marrow metastasis) derived exosomes; test: as above; type: in vivo, mouse; conditions: 1% methylene blue in hind limb paw 1 h after i.v. exosomes; PET 1 h later; opposite paw (Ringer's only) showed no accumulation
Method: as §1

extracellular vesicles = test: Homing of extracellular vesicles to the target site by an injected homing agent; type: in vivo; conditions: subcutaneous area in foot pad of a mouse, 500 ng also printed as 1.6 nmol
Source text: We have discovered that non-toxic doses of phenothiazine derivatives or polyethylene glycols are useful for the homing of exogenous extracellular vesicles to specific tissues in the body. This discovery has many potential applications in therapy and diagnosis in its ability to spatially concentrate extracellular vesicles. These methods can improve the homing of extracellular vesicles to diseased tissues, as well as enriched sampling and extraction of extracellular vesicles for diagnostics at low cost. Rather than using extensively modified extracellular vesicles (e.g., with biological and/or chemical modifications), which can be complex and costly, extracellular vesicles can be targeted by using little to no modification of the extracellular vesicles themselves. […] Our initial findings show broad applicability with regard to the extracellular vesicles type/source and the target tissue in the context of homing using phenothiazine derivatives or polyethylene glycols. At present, the homing is effective with as low as 500 ng (1.6 nmol) of methylene blue injected at the target site. In this example, the target site is the subcutaneous area in foot pad of a mouse, with good perfusion of the methylene blue, so the effective amount of methylene blue for extracellular vesicle homing could be much lower than 500 ng (1.6 nmol).

Structure (SMILES): CN(C)c1ccc2nc3ccc(=[N+](C)C)cc-3sc2c1 [methylene blue]
- accumulation of ^89Zr labeled PC-3 derived exosomes in the hind paw that received methylene blue [1]: significant accumulation
- accumulation of ^89Zr labeled stem cell derived exosomes in the hind paw that received methylene blue [2]: significant accumulation
- homing of exosomes to methylene blue injection sites (PET image 502) ([3]; 1% methylene blue injected in a hind paw and a front paw 19 hours after i.v. exosomes, imaged 3 h post-methylene blue injection): homing of exosome to hind paw
- signal from exosomes at methylene blue injection sites (PET image 504) ([3]; 20 additional hours after the methylene blue injection, hind paw and front paw): persistence of signal
- accumulation of exosomes at second methylene blue injection site, opposite hind paw (PET image 506) ([3]; second methylene blue injection about two days after exosome injection, PET one hour later): accumulated at the target site 520
- accumulation of ^89Zr labeled A549 derived exosomes in the hind paw that received methylene blue (PET image 552) [4]: significant accumulation
- accumulation of ^89Zr labeled SK-N-SH derived exosomes in the hind paw that received methylene blue (PET image 556) [5]: significant accumulation
- lowest amount at which homing is effective (extracellular vesicles): 500 ng
